Experiment: xn = mol fraction of the nth substance listed
Conditions: Liquid, Vibrating tube method

CC(C)C [2-methylpropane] + CCCC
Conditions	mass density [kg/m3]
300 K, 5514.6 kPa, x2 = 0.25	564.1
300 K, 5950.5 kPa, x2 = 0.75	574.92
300 K, 5960.3 kPa, x2 = 0.5	570.04
300 K, 6036.6 kPa, x2 = 0.25	565.05
300 K, 6473.1 kPa, x2 = 0.75	575.78
300 K, 6498 kPa, x2 = 0.25	565.9
300 K, 6511.5 kPa, x2 = 0.5	571.01
300 K, 7001.6 kPa, x2 = 0.25	566.76
300 K, 7003.6 kPa, x2 = 0.5	571.85
300 K, 7005.5 kPa, x2 = 0.75	576.66
320 K, 978.9 kPa, x2 = 0.5	535.28
320 K, 1008.4 kPa, x2 = 0.75	541.4
320 K, 1010.3 kPa, x2 = 0.25	529.04
320 K, 1496.2 kPa, x2 = 0.25	530.4
320 K, 1506.1 kPa, x2 = 0.75	542.64
320 K, 1594.1 kPa, x2 = 0.5	536.89
320 K, 2006 kPa, x2 = 0.75	543.82
320 K, 2007.9 kPa, x2 = 0.5	537.95
320 K, 2013.6 kPa, x2 = 0.25	531.82
320 K, 2503.8 kPa, x2 = 0.75	545.03
320 K, 2511 kPa, x2 = 0.25	533.15
320 K, 2513.8 kPa, x2 = 0.5	539.22
320 K, 2989.3 kPa, x2 = 0.25	534.4
320 K, 2990.8 kPa, x2 = 0.75	546.14
320 K, 3020.8 kPa, x2 = 0.5	540.47
320 K, 3465.4 kPa, x2 = 0.5	541.53
320 K, 3504.2 kPa, x2 = 0.25	535.74
320 K, 3510.6 kPa, x2 = 0.75	547.3
320 K, 3972.8 kPa, x2 = 0.5	542.72
320 K, 3986.7 kPa, x2 = 0.75	548.41
320 K, 4006.4 kPa, x2 = 0.25	537
320 K, 4485.3 kPa, x2 = 0.25	538.17
320 K, 4492.1 kPa, x2 = 0.5	543.94
320 K, 4515.1 kPa, x2 = 0.75	549.56
320 K, 4992.4 kPa, x2 = 0.5	545.07
320 K, 4997.8 kPa, x2 = 0.75	550.6
320 K, 4998.1 kPa, x2 = 0.25	539.39
320 K, 5465.3 kPa, x2 = 0.5	546.12
320 K, 5506.3 kPa, x2 = 0.25	540.6
320 K, 5508.2 kPa, x2 = 0.75	551.69
320 K, 5970.9 kPa, x2 = 0.25	541.67
320 K, 5971.8 kPa, x2 = 0.5	547.22
320 K, 6015.9 kPa, x2 = 0.75	552.74
320 K, 6462.7 kPa, x2 = 0.5	548.28
320 K, 6488.4 kPa, x2 = 0.75	553.71
320 K, 6514.9 kPa, x2 = 0.25	542.91
320 K, 7034.9 kPa, x2 = 0.25	544.07
320 K, 7065.7 kPa, x2 = 0.75	554.85
320 K, 7093.8 kPa, x2 = 0.5	549.62
340 K, 998.6 kPa, x2 = 0.5	506.59
340 K, 1008.5 kPa, x2 = 0.75	513.55
340 K, 1505.9 kPa, x2 = 0.75	515.25
340 K, 1510 kPa, x2 = 0.25	501.39
340 K, 1561.3 kPa, x2 = 0.5	508.67
340 K, 2003.4 kPa, x2 = 0.25	503.24
340 K, 2008.5 kPa, x2 = 0.5	510.27
340 K, 2020.5 kPa, x2 = 0.75	516.97
340 K, 2495.8 kPa, x2 = 0.25	505.08
340 K, 2500.9 kPa, x2 = 0.75	518.54
340 K, 2527.9 kPa, x2 = 0.5	512.06
340 K, 3001.4 kPa, x2 = 0.5	513.65
340 K, 3005.7 kPa, x2 = 0.75	520.07
340 K, 3009.8 kPa, x2 = 0.25	506.91
340 K, 3499.6 kPa, x2 = 0.75	521.61
340 K, 3512.9 kPa, x2 = 0.25	508.67
340 K, 3521.9 kPa, x2 = 0.5	515.35
340 K, 4004.8 kPa, x2 = 0.25	510.31
340 K, 4004.8 kPa, x2 = 0.75	523.11
340 K, 4042.3 kPa, x2 = 0.5	516.97
340 K, 4496.4 kPa, x2 = 0.75	524.53
340 K, 4508.6 kPa, x2 = 0.25	511.95
340 K, 4526.2 kPa, x2 = 0.5	518.46
340 K, 4981.3 kPa, x2 = 0.25	513.47
340 K, 4988.5 kPa, x2 = 0.5	519.84
340 K, 4990.6 kPa, x2 = 0.75	525.87
340 K, 5500.3 kPa, x2 = 0.25	515.08
340 K, 5502 kPa, x2 = 0.5	521.34
340 K, 5515.9 kPa, x2 = 0.75	527.37
340 K, 5973.6 kPa, x2 = 0.75	528.61
340 K, 5999.1 kPa, x2 = 0.25	516.58
340 K, 6016.6 kPa, x2 = 0.5	522.8
340 K, 6476.8 kPa, x2 = 0.5	524.07
340 K, 6496.3 kPa, x2 = 0.75	529.99
340 K, 6508.8 kPa, x2 = 0.25	518.07
340 K, 7019.3 kPa, x2 = 0.75	531.33
340 K, 7019.9 kPa, x2 = 0.25	519.55
340 K, 7084.7 kPa, x2 = 0.5	525.72
360 K, 1517.1 kPa, x2 = 0.75	483.05
360 K, 1517.3 kPa, x2 = 0.5	475.07
360 K, 1523.6 kPa, x2 = 0.25	466.34
360 K, 1975.7 kPa, x2 = 0.25	469.15
360 K, 1976.3 kPa, x2 = 0.75	485.36
360 K, 2018.5 kPa, x2 = 0.5	477.84
360 K, 2482.6 kPa, x2 = 0.25	472.1
360 K, 2496 kPa, x2 = 0.75	487.85
360 K, 2525 kPa, x2 = 0.5	480.5
360 K, 2961.3 kPa, x2 = 0.75	489.97
360 K, 3005.9 kPa, x2 = 0.5	482.91
360 K, 3010.1 kPa, x2 = 0.25	474.99
360 K, 3489.3 kPa, x2 = 0.75	492.24
360 K, 3507.7 kPa, x2 = 0.25	477.58
360 K, 3511.2 kPa, x2 = 0.5	485.28
360 K, 3977.2 kPa, x2 = 0.75	494.26
360 K, 4007.3 kPa, x2 = 0.25	480.03
360 K, 4019.1 kPa, x2 = 0.5	487.57
360 K, 4443.6 kPa, x2 = 0.75	496.16
360 K, 4493 kPa, x2 = 0.25	482.35
360 K, 4510.2 kPa, x2 = 0.5	489.71
360 K, 4948.8 kPa, x2 = 0.75	498.12
360 K, 5010.2 kPa, x2 = 0.25	484.66
360 K, 5018.9 kPa, x2 = 0.5	491.8
360 K, 5499.8 kPa, x2 = 0.75	500.18
360 K, 5503.6 kPa, x2 = 0.25	486.78
360 K, 5508.6 kPa, x2 = 0.5	493.77
360 K, 5964.2 kPa, x2 = 0.75	501.91
360 K, 6002.5 kPa, x2 = 0.25	488.86
360 K, 6019.4 kPa, x2 = 0.5	495.75
360 K, 6484.4 kPa, x2 = 0.75	503.73
360 K, 6497.2 kPa, x2 = 0.25	490.83
360 K, 6511.4 kPa, x2 = 0.5	497.56
360 K, 7022.1 kPa, x2 = 0.5	499.47
360 K, 7041 kPa, x2 = 0.25	492.93
360 K, 7073.3 kPa, x2 = 0.75	505.68
380 K, 1992.3 kPa, x2 = 0.75	445.43
380 K, 2496.5 kPa, x2 = 0.25	428.54
380 K, 2506.6 kPa, x2 = 0.5	440.41
380 K, 2519.3 kPa, x2 = 0.75	449.94
380 K, 3005 kPa, x2 = 0.5	444.82
380 K, 3007.8 kPa, x2 = 0.25	433.95
380 K, 3014.5 kPa, x2 = 0.75	453.77
380 K, 3482.8 kPa, x2 = 0.75	457.09
380 K, 3498.2 kPa, x2 = 0.25	438.53
380 K, 3519 kPa, x2 = 0.5	448.92
380 K, 4000 kPa, x2 = 0.25	442.76
380 K, 4015.3 kPa, x2 = 0.5	452.56
380 K, 4022 kPa, x2 = 0.75	460.64
380 K, 4463.2 kPa, x2 = 0.25	446.33
380 K, 4476.8 kPa, x2 = 0.75	463.44
380 K, 4521.7 kPa, x2 = 0.5	456
380 K, 4994 kPa, x2 = 0.75	466.44
380 K, 5001.3 kPa, x2 = 0.5	459.04
380 K, 5004.6 kPa, x2 = 0.25	450.19
380 K, 5481.2 kPa, x2 = 0.25	453.35
380 K, 5504.5 kPa, x2 = 0.75	469.24
380 K, 5511.6 kPa, x2 = 0.5	462.08
380 K, 5986.7 kPa, x2 = 0.25	456.5
380 K, 5998.4 kPa, x2 = 0.75	471.8
380 K, 6010.6 kPa, x2 = 0.5	464.88
380 K, 6475.4 kPa, x2 = 0.75	474.16
380 K, 6476.8 kPa, x2 = 0.25	459.36
380 K, 6505.2 kPa, x2 = 0.5	467.52
380 K, 6967.5 kPa, x2 = 0.75	476.48
380 K, 6981.4 kPa, x2 = 0.5	469.94
380 K, 7003.2 kPa, x2 = 0.25	462.28

mass density [kg/m3]
Conditions	300 K	320 K	340 K	360 K	380 K
x2 = 0.25	553.87	527.89	499.35	–	424.73
x2 = 0.5	559.44	534.14	506.18	474.18	435.21
x2 = 0.75	564.78	540.17	512.91	481.73	445.14
